Reference: the supplement of paper PMC5412046

How the values were obtained:
[1] = test system: SB.mhdgc-1; experiment: area under the dose-response curve of % viability (trapezoidal, 11 doses) (% viability x log10 concentration); higher = less cytotoxic; conditions: SB.mhdgc-1 (hereditary c.1380delA CDH1 gastric cancer)
Procedure, shortened: (§1)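 The measure is viability normalised to DMSO, given as trapezoidal area under the curve or at the highest concentration. Patient-derived gastric cancer cells, hereditary or sporadic, were exposed for 48 h to compound at 11 threefold-diluted concentrations, each compound's top concentration being recorded. Luminescence was read on a ViewLux after 30 min with CellTiter-Glo at room temperature.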

[2] = test system: SB.msgc-1; experiment: as above; conditions: SB.msgc-1 (sporadic gastric cancer)
Procedure, shortened: as §1

[3] = test system: SB.mhdgc-1; experiment: viability at highest tested concentration (MAXR) relative to DMSO; higher = less cytotoxic; conditions: SB.mhdgc-1 (hereditary c.1380delA CDH1 gastric cancer)
Procedure, shortened: as §1

[4] = test system: SB.msgc-1; experiment: as above; conditions: SB.msgc-1 (sporadic gastric cancer)
Procedure, shortened: as §1

## CN(C)c1ccc(C(=O)NCCCCCCC(=O)NO)cc1 [M344] (top concentration 46.0829 µM)
[1]
  area under the dose-response curve: 363
[2]
  area under the dose-response curve: 309
[3]
  viability: 2.75%
[4]
  viability: 2.11%

## Cn1cc(/C=C/C(=O)c2cccc(F)c2)cc1/C=C/C(=O)NO [MC-1568] (top concentration 46.0829 µM)
[1]
  area under the dose-response curve: 492
[2]
  area under the dose-response curve: 440
[3]
  viability: 65.8%
[4]
  viability: 46.7%

## CC1(N2CCC(n3c([C@@H]4CCCNC4)nc4ccccc43)CC2)CCCCCCC1 [MCOPPB] (top concentration 46.0829 µM)
[1]
  area under the dose-response curve: 451
[2]
  area under the dose-response curve: 530
[3]
  viability: 4.64%
[4]
  viability: 78.1%

## CNC(=O)c1ccc(N2C(=S)N(c3ccc(C#N)c(C(F)(F)F)c3)C(=O)C2(C)C)cc1F [MDV-3100] (top concentration 46.0829 µM)
[1]
  area under the dose-response curve: 507
[2]
  area under the dose-response curve: 464
[3]
  viability: 70.4%
[4]
  viability: 74.6%

## CCC[C@@H](C=O)NC(=O)[C@H](CC(C)C)NC(=O)[C@H](CC(C)C)NC(=O)OCc1ccccc1 [MG-115] (top concentration 46.0829 µM)
[1]
  area under the dose-response curve: 350
[2]
  area under the dose-response curve: 361
[3]
  viability: 4.83%
[4]
  viability: 4.73%

## CC(C)C[C@@H](C=O)NC(=O)[C@H](CC(C)C)NC(=O)[C@H](CC(C)C)NC(=O)OCc1ccccc1 [MG-132] (top concentration 46.0829 µM)
[1]
  area under the dose-response curve: 330
[2]
  area under the dose-response curve: 292
[3]
  viability: 3.2%
[4]
  viability: 3.51%

## CCCCCCCc1ccc(CCc2cccc(O)c2C(=O)O)cc1 [MG-149] (top concentration 46.0829 µM)
[1]
  area under the dose-response curve: 525
[2]
  area under the dose-response curve: 511
[3]
  viability: 90.6%
[4]
  viability: 79.6%

## Cn1cnc(-c2cc3nccc(Oc4ccc(NC(=S)NC(=O)Cc5ccccc5)cc4F)c3s2)c1 [MGCD-265] (top concentration 46.0829 µM)
[1]
  area under the dose-response curve: 410
[2]
  area under the dose-response curve: 425
[3]
  viability: 56.2%
[4]
  viability: 40%

## COCCOc1nc(-c2ccc(Cl)c(Cl)c2)n(-c2ccc(NC(=O)CCl)cc2)n1 [MI-2] (top concentration 46.0829 µM)
[1]
  area under the dose-response curve: 474
[2]
  area under the dose-response curve: 460
[3]
  viability: 35.3%
[4]
  viability: 59.3%

## C1Cc2[nH]nc(-c3nn[nH]n3)c2C1 [MK-0354] (top concentration 46.0829 µM)
[1]
  area under the dose-response curve: 450
[2]
  area under the dose-response curve: 499
[3]
  viability: 98.4%
[4]
  viability: 112%

## O=C(O)CCC1CCC(c2cc(F)ccc2F)([S+](=O)([O-])c2ccc(Cl)cc2)CC1 (stereo not drawn) [MK-0752] (top concentration 46.0829 µM)
[1]
  area under the dose-response curve: 435
[2]
  area under the dose-response curve: 479
[3]
  viability: 78.9%
[4]
  viability: 58.6%

## COc1ccc(CC2SC(=O)NC2=O)cc1C(=O)NCc1ccc(C(F)(F)F)cc1 (stereo not drawn) [MK-767] (top concentration 46.0829 µM)
[1]
  area under the dose-response curve: 462
[2]
  area under the dose-response curve: 271
[3]
  viability: 59.8%
[4]
  viability: 19.6%

## CC(C)c1ccc2c(c1)c(SC(C)(C)C)c(CC(C)(C)C(=O)[O-])n2Cc1ccc(Cl)cc1 [MK-886] (top concentration 46.0829 µM)
[1]
  area under the dose-response curve: 473
[2]
  area under the dose-response curve: 331
[3]
  viability: 25.9%
[4]
  viability: 19%

## C=CCn1c(=O)c2cnc(Nc3ccc(N4CCN(C)CC4)cc3)nc2n1-c1cccc(C(C)(C)O)n1 [MK-1775] (top concentration 46.0829 µM)
[1]
  area under the dose-response curve: 384
[2]
  area under the dose-response curve: 384
[3]
  viability: 36.2%
[4]
  viability: 41.1%

## CCN1C[C@H](C)[N]2C(=C(O)C3=C2\C(=N/N(CC4=CC=C(F)C(=C4)Cl)C3=O)C(=O)NC)C1=O [MK-2048] (top concentration 46.0829 µM)
[1]
  area under the dose-response curve: 538
[2]
  area under the dose-response curve: 574
[3]
  viability: 118%
[4]
  viability: 106%

## NC1(c2ccc(-c3nc4ccn5c(=O)[nH]nc5c4cc3-c3ccccc3)cc2)CCC1 [MK-2206] (top concentration 46.0829 µM)
[1]
  area under the dose-response curve: 370
[2]
  area under the dose-response curve: 468
[3]
  viability: 16.4%
[4]
  viability: 41.5%

## CN(C[C@@H]1COCCO1)[S+]([O-])(=O)NC2=CC3=C(C=C2)\C=C/C4=C(C=C(C=N4)C5=C[N](C)N=C5)C3=O [MK-2461] (top concentration 46.0829 µM)
[1]
  area under the dose-response curve: 564
[2]
  area under the dose-response curve: 470
[3]
  viability: 90.3%
[4]
  viability: 76.8%
